US20100099917A1, “Integrin modulators and methods for their use” (Billings Pharmaceuticals, Inc., priority 2004, published 2010)

How the values were obtained:
[1] = tested on: HIV-1RF-infected H9 cells; assay: Inhibition of HIV-induced syncytium formation (uninfected H9 cells with HIV-1RF-infected H9 cells); type: cell-based; settings: for IC100 of syncytium formation: H9 + HIV-1RF-infected H9 cells, 6 to 15 hours at 37° C.
Description: The purified enantiomers were taken up in DMSO at a concentration of 10 mg/mL. Dilutions were made in RPMI 1640 medium containing 10% fetal calf serum and 10 mM HEPES (cRPMI). H9 cells (ATCC, Rockville, Md.) infected with HIV-1RF (NIH AIDS Repository, Rockville, Md.) and uninfected H9 cells were washed with cRPMI and resuspended in cRPMI at a density of 4×10^6 per mL. Uninfected cells (50 μL) were mixed with serial dilutions of the compounds (100 μL) and incubated at 37° C. for 30 min before adding and mixing 50 μL of infected H9 cells. The plates were incubated at 37° C. for 6 to 15 hours before scoring syncytium formation.
For all the curves, the effect of ajoene enantiomers and enantiomer mixtures on the fusion of cultured, intact H9 cells with HIV-1RF-infected H9 cells is disclosed. The vertical graph axis expresses the maximum amount of syncytia formed in the absence of the compounds (100 percent), while the points on the curves represent percentages of such an amount of syncytia formed in the presence of varying concentrations of the compounds and compound mixtures (micromoles per liter).

[2] = target: T1, VLA-4 (Homo sapiens, UniProt P05556+P13612); assay: Inhibition of VLA-4-mediated adhesion of HRP-labeled PMI cells to VCAM-1-coated substrata; type: cell-based
T1 construct: VLA-4-mediated adhesion of enzyme-labeled PM1 cells to VCAM-1-coated artificial substrata; host or cells: PM1 (printed 'PMI') cells
Description: In addition, the present invention provides methods whereby the integrin-modulating activity of DDCs may be assessed. One such method involves VLA-4-mediated adhesion of enzyme-labeled PM1 cells to VCAM-1-coated artificial substrata. Specifically, the cells are exposed to isolated DDC enantiomers (or the vehicle thereof) and allowed to adhere or not adhere to immobilized VCAM-1. Thereafter, the adherent cells are lysed and, following addition of the substrate of the enzyme and incubation, the activity of the enzyme is measured spectrophotometrically. The value of this parameter, characterizing the number of the adherent cells, is inversely proportional to integrin-modulating activity of the compound. Another such method is based on the inhibition of HIV-mediated syncytium formation, a phenomenon known to depend on integrin-mediated functions. Yet another method is based on the inhibition of cell-to-cell HIV transmission, a process also dependent on integrin-mediated functions. Modulating activity of integrin-mediated functions by the enantiomers was compared in a well-defined system of inhibition of VLA-4-mediated adhesion of enzyme-labeled PMI cells (NIH AIDS Repository, Rockville, Md.) to VCAM-1-coated artificial substrata. […] The reaction was stopped with 0.5 M H2SO4, and the optical density of the wells was read at 450 nm. […]

[3] = tested on: U937 cells infected with HIV-1 RT; assay: Inhibition of syncytium formation (MT2 cells with HIV-1 RT-infected U937 cells); type: cell-based; settings: MT2 + HIV-1 RT-infected U937 cells, 13 hours
[4] = tested on: adhesion-dependent processes; settings: mixtures of E- and Z-isomers; cited from earlier work
[5] = target: platelet integrin, GP IIb/IIIa (Homo sapiens, UniProt P05106+P08514); settings: allosteric inactivation of GP IIb/IIIa; cited from earlier work
platelet integrin, GP IIb/IIIa, sequence (P08514 32-887 limits assumed): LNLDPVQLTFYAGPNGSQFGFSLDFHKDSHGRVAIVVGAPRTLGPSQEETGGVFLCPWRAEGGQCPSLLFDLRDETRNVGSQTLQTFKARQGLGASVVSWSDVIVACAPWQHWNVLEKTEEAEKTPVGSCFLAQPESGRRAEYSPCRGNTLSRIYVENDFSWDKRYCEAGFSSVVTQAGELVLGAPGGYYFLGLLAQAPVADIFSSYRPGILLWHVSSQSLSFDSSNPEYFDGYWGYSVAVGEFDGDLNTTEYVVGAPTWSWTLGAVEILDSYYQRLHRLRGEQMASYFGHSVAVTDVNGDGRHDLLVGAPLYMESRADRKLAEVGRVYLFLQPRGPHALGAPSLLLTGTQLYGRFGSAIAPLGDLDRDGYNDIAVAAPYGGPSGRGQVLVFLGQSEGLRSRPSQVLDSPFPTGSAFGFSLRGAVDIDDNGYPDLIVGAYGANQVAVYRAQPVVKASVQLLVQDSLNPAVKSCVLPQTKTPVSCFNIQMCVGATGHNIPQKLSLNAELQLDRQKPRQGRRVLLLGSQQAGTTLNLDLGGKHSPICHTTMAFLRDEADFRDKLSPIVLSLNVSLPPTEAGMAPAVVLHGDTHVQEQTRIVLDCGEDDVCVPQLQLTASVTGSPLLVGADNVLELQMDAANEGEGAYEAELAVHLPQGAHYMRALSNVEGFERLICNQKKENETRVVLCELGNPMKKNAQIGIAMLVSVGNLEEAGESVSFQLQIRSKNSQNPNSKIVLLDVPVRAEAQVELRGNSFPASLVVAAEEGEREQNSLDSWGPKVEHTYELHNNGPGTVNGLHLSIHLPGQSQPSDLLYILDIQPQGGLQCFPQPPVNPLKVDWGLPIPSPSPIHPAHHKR
platelet integrin, GP IIb/IIIa, sequence (P08514 891-1039 limits assumed): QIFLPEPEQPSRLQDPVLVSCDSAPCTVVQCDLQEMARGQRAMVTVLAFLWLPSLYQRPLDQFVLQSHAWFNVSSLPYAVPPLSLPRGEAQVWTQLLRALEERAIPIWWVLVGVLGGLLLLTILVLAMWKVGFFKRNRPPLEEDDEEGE
platelet integrin, GP IIb/IIIa, sequence (P05106 27-788): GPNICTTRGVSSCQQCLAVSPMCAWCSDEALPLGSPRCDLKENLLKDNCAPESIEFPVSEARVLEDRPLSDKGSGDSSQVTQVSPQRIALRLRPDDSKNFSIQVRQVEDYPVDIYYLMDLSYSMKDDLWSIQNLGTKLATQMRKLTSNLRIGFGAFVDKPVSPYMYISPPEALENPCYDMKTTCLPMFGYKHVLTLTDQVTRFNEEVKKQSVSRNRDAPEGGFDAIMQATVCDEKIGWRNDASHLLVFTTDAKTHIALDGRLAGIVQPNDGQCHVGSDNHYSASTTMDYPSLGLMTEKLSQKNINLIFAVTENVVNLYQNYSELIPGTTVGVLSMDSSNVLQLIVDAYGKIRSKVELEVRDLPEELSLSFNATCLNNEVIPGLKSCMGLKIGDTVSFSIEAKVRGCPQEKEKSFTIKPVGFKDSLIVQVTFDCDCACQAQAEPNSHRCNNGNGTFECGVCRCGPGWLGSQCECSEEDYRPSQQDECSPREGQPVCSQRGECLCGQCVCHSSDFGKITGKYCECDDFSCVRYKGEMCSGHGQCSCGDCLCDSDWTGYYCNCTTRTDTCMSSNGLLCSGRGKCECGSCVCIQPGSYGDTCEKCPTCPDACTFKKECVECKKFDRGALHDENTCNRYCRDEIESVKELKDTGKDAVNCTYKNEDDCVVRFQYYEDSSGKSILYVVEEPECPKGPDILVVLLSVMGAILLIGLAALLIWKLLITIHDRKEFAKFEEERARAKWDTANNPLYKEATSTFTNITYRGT

T1 sequence (P13612 34-1032): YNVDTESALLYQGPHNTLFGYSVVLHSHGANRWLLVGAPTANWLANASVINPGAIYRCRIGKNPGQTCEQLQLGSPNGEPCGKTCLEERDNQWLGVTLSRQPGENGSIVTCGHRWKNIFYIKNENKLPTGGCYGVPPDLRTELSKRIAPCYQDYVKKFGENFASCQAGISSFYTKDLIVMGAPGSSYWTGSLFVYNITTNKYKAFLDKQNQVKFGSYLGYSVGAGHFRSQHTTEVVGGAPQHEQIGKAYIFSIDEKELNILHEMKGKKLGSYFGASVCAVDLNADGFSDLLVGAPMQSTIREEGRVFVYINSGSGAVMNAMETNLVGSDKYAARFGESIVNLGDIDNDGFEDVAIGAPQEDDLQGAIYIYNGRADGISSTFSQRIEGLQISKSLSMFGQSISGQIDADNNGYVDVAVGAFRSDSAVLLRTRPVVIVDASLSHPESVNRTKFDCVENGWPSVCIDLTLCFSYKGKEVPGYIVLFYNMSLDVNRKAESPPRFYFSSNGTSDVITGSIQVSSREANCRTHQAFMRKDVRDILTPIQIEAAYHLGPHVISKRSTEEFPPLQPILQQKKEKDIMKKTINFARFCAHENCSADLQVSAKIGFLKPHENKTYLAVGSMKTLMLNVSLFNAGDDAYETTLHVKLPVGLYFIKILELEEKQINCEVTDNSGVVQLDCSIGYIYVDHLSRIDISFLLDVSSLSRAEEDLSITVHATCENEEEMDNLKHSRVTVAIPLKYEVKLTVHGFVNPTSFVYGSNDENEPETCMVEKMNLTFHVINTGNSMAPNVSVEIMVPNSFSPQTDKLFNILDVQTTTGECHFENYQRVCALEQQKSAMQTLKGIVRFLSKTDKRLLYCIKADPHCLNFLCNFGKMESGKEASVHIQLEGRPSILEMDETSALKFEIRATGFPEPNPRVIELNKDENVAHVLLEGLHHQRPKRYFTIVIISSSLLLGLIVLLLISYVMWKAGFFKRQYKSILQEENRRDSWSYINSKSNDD
T1 sequence (P05556 21-798): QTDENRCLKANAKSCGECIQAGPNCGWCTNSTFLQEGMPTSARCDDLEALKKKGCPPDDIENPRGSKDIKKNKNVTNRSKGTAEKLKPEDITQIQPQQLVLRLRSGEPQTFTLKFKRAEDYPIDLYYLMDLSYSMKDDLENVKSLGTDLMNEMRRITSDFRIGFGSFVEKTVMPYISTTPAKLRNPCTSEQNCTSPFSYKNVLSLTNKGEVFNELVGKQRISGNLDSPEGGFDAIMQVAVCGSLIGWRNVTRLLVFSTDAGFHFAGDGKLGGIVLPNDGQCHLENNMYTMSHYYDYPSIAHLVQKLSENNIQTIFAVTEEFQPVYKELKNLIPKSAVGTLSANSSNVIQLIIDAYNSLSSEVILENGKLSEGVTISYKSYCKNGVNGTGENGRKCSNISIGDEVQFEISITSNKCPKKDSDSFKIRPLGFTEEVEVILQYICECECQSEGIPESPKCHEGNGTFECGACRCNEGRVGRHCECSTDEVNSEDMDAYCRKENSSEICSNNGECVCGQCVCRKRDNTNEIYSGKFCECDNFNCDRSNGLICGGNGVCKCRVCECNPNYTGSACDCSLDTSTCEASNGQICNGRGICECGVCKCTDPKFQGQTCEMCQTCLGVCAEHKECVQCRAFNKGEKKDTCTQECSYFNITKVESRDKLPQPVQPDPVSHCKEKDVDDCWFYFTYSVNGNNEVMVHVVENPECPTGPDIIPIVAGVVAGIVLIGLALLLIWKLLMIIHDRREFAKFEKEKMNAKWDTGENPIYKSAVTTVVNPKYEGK

**Q.** With `C=CCSS/C=C/C[S+]([O-])CC=C` (racemic) [racemic (E)-ajoene, reference compound] as the compound, how does the “IC100 of syncytium formation” value [1] read?
**A.** 50 micromoles per liter

**Q.** Which “IC100 of syncytium formation” value [1] does the source give for `C=CCSS/C=C\C[S+]([O-])CC=C` (stereo not drawn) [(Z)-(+) counterpart] here?
**A.** 50 micromoles per liter

**Q.** For `C=CCSS/C=C\C[S+]([O-])CC=C` (stereo not drawn) [(Z)-(−)-enantiomer, (Z)-(−)-4,5,9-trithiadodeca-1,6,11-triene-9-oxide], which “IC100 of syncytium formation” value [1] is on record?
**A.** 12.5 micromoles per liter

**Q.** And the “activity as an integrin modulator relative to other enantiomers, racemic E-ajoene or the unseparated 3:1 mixture” value ([1]; summary statement in the description, covers Examples 2 and 3)?
**A.** at least four times more active

**Q.** What about the “activity relative to (Z)-(+) counterpart, racemic (E)-ajoene or the unseparated 3:1 mixture” value ([1]; syncytium formation, FIG. 1 curves) of the same compound?
**A.** at least four times more active

**Q.** And the “adhesion-inhibiting activity, fold higher than any other enantiomer of the original 3:1 mixture” value ([2]; PMI cells on VCAM-1, optical density read at 450 nm)?
**A.** 4 fold

**Q.** What about the “activity compared with the parent racemates (E-, Z-ajoenes and mixtures)” value ([2]; conclusion from Examples 2 and 3 taken together) of the same compound?
**A.** significantly higher

**Q.** And the “syncytium formation inhibition, result compared with the H9 system” value [3]?
**A.** A similar result was obtained

**Q.** With `C=CCSS/C=C/C[S+]([O-])CC=C` (stereo not shown) [ajoene, 4,5,9-trithiadodeca-1,6,11-triene-9-oxide] as the compound, how does the “inhibition of adhesion-dependent processes” value [4] read?
**A.** potent inhibitor

**Q.** And the “effect on platelet aggregation” value [5]?
**A.** inhibit platelet aggregation
